Results on one compound are retold here after article PMC7481428, “Celastrol induces ROS-mediated apoptosis via directly targeting peroxiredoxin-2 in gastric cancer cells” (Theranostics, 2020).

The target in this assay is T1, peroxiredoxin-2 (Prdx2) (Homo sapiens, UniProt P32119).
T1 construct: His-tagged recombinant Prdx2 (rhPrdx2)
T1 sequence (P32119 2-198): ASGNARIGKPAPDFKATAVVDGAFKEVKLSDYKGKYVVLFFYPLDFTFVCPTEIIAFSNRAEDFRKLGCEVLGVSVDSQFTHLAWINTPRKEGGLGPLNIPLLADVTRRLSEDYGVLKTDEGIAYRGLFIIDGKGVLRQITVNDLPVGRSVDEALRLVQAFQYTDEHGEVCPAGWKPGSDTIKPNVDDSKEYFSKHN
Put plainly: ITC (also SPR KD […]; peroxidase inhibition IC50 […]). The class given is binding.

Molecules are shown by their SMILES.

In general, Kd refers to the free concentration of one partner at which half of the binding sites on the other are occupied at equilibrium, for simple one-to-one binding. A high value points to lower affinity. For the compound `CC1=C(O)C(=O)C=C2C1=CC=C1[C@@]2(C)CC[C@@]2(C)[C@@H]3C[C@](C)(C(=O)O)CC[C@]3(C)CC[C@]12C` [Celastrol], the dissociation constant (Kd) was found to be 650 nM.
